Test results from US20230270148A1, “BITTER BLOCKERS AND RELATED METHODS OF USE” (Conagen Inc., priority 2020, published 2023).

Experiments:
[1] = tested on: peach-flavored energy drink (caffeine, B vitamins); experiment: Sensory evaluation: bitterness reduction of a peach-flavored energy drink; type: in vivo; details: dosage per sample
Experimental: (§1) The bitterness blocker candidates listed in Table 1 were prepared into a 1% sample solution with propylene glycol and heated to ensure complete solubilization. […] A trained sensory evaluator was asked to estimate the perceived bitterness reduction against the control, as well as to provide comments on how the addition of the individual sample solution modulated the taste and mouth feel profile of the resulting peach-flavored energy drink.

[2] = tested on: dark roast coffee; experiment: Sensory evaluation: bitterness reduction of dark roast coffee; type: in vivo; details: dosage 50 or 100 ppm per sample
Experimental: as §1, with “dark roast coffee.” for “peach-flavored energy drink.”

[3] = tested on: caffeine in water; experiment: Two-alternative forced choice (2AFC) difference test; type: in vivo
Experimental: The bitter blocker candidates BB09, BB11, and BB13 were subject to a two-alternative forced choice (2AFC) difference test wherein panelists were presented Control Caffeine solutions and Test solutions containing caffeine and one of three bitterness blocker candidates (BB09, BB 11, or BB13). Panelists were asked to evaluate the two samples and answer the question, “which one is more hitter?”
BB09 and BB11 were tested first. Three ounces of control (caffeine in water), BB09 in caffeine water, and BB11 in caffeine water were presented at room temperature in separate plastic souffle cups labeled with 3-digit codes. Ten sensory trained panelists evaluated each sample in three repetitions with a 10 minute break between repetitions. Panelists then completed the 2AFC. Data was collected on EveQuestion and analyzed on XLSTAT. Testing was conducted at Sensations Research according to FEMA guidelines.
BB13 was tested separately. Two ounces of control (caffeine in water), BB13 in caffeine water were presented at room temperature in separate plastic souffle cups labeled with 3-digit codes. Fifteen participants evaluated each sample in two repetitions with a 10 minute break between repetitions for a total of thirty evaluations as per the FEMA guidelines. Panelists then completed the 2AFC to identify the more bitter sample. Data was collected and analyzed on Compusense.

[4] = tested on: bitter-responsive human taste bud tissue-derived cells (hTBEC); experiment: ATP secretion detection assay (luminescence); type: cell-based
Experimental: (§2) The bitter blocker candidates were further characterized using bitter-responsive human taste bud tissue-derived cells (hTBEC) platforms and bioassays. Bitter-responsive hTBECs were treated with hitter blocker candidates and various bitter agonists to assess the efficacy of each bitter blocker candidate in reducing the bitterness of each of the various bitter agonists.
One industry standard bitter agonist was used as a control (L-Praziquantel), and five bitter blocker controls were used (Senomyx BB68, STX-001, sodium gluconate, eridictyol, and homoeridictyol).
BB09, BB11, and BB13 were first tested at various concentrations in combination with 100 μM Dextromethorphan-HBr.
Next, bitter blocker concentration ranges were narrowed (100 μM-1,000 μM) and compared to a fixed concentration of stimulus. […] BB13 was evaluated further by real time ATP secretion detection in pooled hTBEC 66 cells treated with 300 μM Theobromine.
Each culture was treated with BB09, BB11, BB13, STX001, or Senomyx BB68, as well as either Dextromethorphan-HBr at 1000 μM (FIGS. 18A-18C), Theobromine at 1,000 μM (FIGS. 19A-19C), Rebaudioside A at 1 mM (FIGS. 20A-20C), or Caffeine at 3 mM (FIGS. 21A-21C).

[5] = tested on: individual donor-derived hTBECs; experiment: Cell calcium mobilization assay; type: cell-based, human
Experimental: as §2
Calcium mobilization response following treatment of 100 μM Dextromethorphan-HBr, 3000 μM Theobromine, and 3 mM Caffeine was evaluated in individual donor-derived hTBECs.

[6] = of thirty evaluations (15 participants, 2 repetitions)

O=C1C[C@@H](c2ccc(O)c(O)c2)Oc2c1c(O)cc(O)c2[C@@H]1O[C@H](CO)[C@@H](O)[C@H](O)[C@H]1O [BB13, Eriodictyol-8-C-β-glucoside]
Comments [1]: Excellent bitter blocking | Comments [2]: Very smooth with nice upfront | significance of bitterness difference control vs sample ([3]; 90% and 95% confidence interval (FIG. 11)): control sample was significantly more bitter | panelists' description of samples ([3]; blocker in caffeine water): initial sweetness that mask the bitterness, less lingering bitterness, and having a nutty taste | evaluations identifying the sample containing the blocker as more bitter [3, 6]: three | evaluations selecting control as more bitter [3, 6]: Twenty-seven | inhibition of luminescence signal from Dextromethorphan-HBr ([4]; 100 μM Dextromethorphan-HBr, blocker 100 μM-1,000 μM, upper concentrations, individual donor-derived hTBECs (FIG. 14A)): inhibited luminescence signal | inhibitory activity against Dextromethorphan-HBr (ATP secretion) ([4]; 100 μM Dextromethorphan-HBr, blocker 1 mM, all three hTBEC cultures (FIG. 22A)): consistently showed inhibitory activity | inhibition of luminescence activity of Dextromethorphan-HBr (ATP secretion) ([4]; 100 μM Dextromethorphan-HBr, various blocker concentrations (FIG. 12)): able to inhibit | inhibition of luminescence signal from L-Praziquantel ([4]; 400 μM L-Praziquantel, blocker 100 μM-1,000 μM, upper concentrations, individual donor-derived hTBECs (FIG. 14B)): inhibited luminescence signal | inhibitory activity against L-Praziquantel (ATP secretion) ([4]; 400 μM L-Praziquantel, blocker 1 mM, all three hTBEC cultures (FIG. 24)): consistently showed inhibitory activity | inhibition of the L-Praziquantel response (ATP secretion) ([4]; 400 μM L-Praziquantel, pooled donor-derived hTBEC (FIG. 13)): showed inhibition | inhibitory activity against Rebaudioside A (ATP secretion) ([4]; 1 mM Rebaudioside A, blocker 1 mM, all three hTBEC cultures (FIG. 23A)): consistently showed inhibitory activity | real time Rebaudioside A-induced ATP secretion ([4]; 1 mM Rebaudioside A, blocker 1,000 μM, pooled hTBEC 56 cultures (FIG. 17)): attenuated | inhibitory activity against Theobromine (ATP secretion) ([4]; 1,000 μM Theobromine, blocker 1 mM, all three hTBEC cultures (FIG. 22B)): consistently showed inhibitory activity | inhibitory activity against Caffeine (ATP secretion) ([4]; 3 mM Caffeine, blocker 1 mM, all three hTBEC cultures (FIG. 23B)): consistently showed inhibitory activity | inhibition of Rebaudioside A-induced ATP secretion ([4]; 3 mM Rebaudioside A, pooled hTBEC 56 cultures, blocker 100, 300 or 1,000 μM (FIG. 16)): strongest inhibition | inhibition of the bitter agonists (ATP secretion) ([4]; hTBEC 66, hTBEC 56, hTBEC Donor H, Dextromethorphan-HBr at 1000 μM, Theobromine 1,000 μM, Rebaudioside A 1 mM or Caffeine 3 mM (FIGS. 18-21)): most consistent inhibition | real time ATP secretion response to Theobromine ([4]; pooled hTBEC 66 cells, 300 μM Theobromine, blocker at 1 mM (FIG. 15)): attenuated the Theobromine-stimulated signal | inhibition of calcium mobilization induced by Dextromethorphan-HBr ([5]; 100 μM Dextromethorphan-HBr, blocker 0.3 μM to 1,000 μM, at high concentrations (FIG. 25)): inhibited calcium mobilization | inhibition of calcium mobilization induced by Caffeine ([5]; 3 mM Caffeine, blocker 1,000 μM, hTBEC 56 cells (FIG. 27)): inhibited calcium mobilization | inhibition of calcium mobilization induced by Theobromine ([5]; 3000 μM Theobromine, blocker 1 μM to 3,000 μM, at high concentrations (FIG. 26)): inhibited calcium mobilization
